Activity calls are given as the source filed them. No cut-off for these calls is given here.

Results on 29 compounds are retold here after ChEMBL document CHEMBL3400059, “Synthesis and structure-activity relationships of a series of 4-methoxy-3-(piperidin-4-yl)oxy benzamides as novel inhibitors of the presynaptic choline transporter” (Bioorg Med Chem Lett, 2015).

Series [1] deals with T1, High affinity choline transporter 1 (Homo sapiens, UniProt Q9GZV3, L531A/V532A). As to the kind of experiment: Inhibition of human CHT […] mutant expressed in HEK293 cells by membrane depolarization assay. The series is classed as cell-based.
For series [2], the system named is T2, High affinity choline transporter 1 (Homo sapiens), Q9GZV3 [L531A,V532A].
T2 sequence (whole entry): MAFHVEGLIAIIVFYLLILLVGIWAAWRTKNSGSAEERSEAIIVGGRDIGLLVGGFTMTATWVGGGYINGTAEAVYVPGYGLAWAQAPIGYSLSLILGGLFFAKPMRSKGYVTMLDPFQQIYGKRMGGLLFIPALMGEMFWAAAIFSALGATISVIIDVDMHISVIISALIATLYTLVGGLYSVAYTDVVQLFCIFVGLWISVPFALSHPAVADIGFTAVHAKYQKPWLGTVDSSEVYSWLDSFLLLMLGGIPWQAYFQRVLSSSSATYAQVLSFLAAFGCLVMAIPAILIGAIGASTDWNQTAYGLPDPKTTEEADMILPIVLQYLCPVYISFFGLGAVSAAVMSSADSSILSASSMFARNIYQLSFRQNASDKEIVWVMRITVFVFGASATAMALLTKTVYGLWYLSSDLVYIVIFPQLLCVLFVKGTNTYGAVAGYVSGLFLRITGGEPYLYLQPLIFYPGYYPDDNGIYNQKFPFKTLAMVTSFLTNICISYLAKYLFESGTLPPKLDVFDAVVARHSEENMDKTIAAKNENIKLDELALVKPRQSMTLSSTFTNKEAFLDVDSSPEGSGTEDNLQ
Nature of the series: Inhibition of human CHT […] mutant expressed in HEK293 cells assessed as remaining transporter activity at 5 uM in presence of 100 nM [3H]choline by [3H]choline uptake assay. The series is classed as cell-based.

Series [3] has the same test system. Nature of the series: Inhibition of human CHT […] mutant expressed in HEK293 cells assessed as remaining transporter activity at 5 uM in presence of 10 uM [3H]choline by [3H]choline uptake assay. The series is classed as cell-based.
The target of series [4] is T1, High affinity choline transporter 1. Nature of the series: Inhibition of human CHT […] mutant expressed in HEK293 cells assessed as remaining transporter activity in presence of 10 uM [3H]choline by [3H]choline uptake assay. Format: cell-based.
For series [5] the target is unchanged. As to the kind of experiment: Inhibition of human CHT […] mutant expressed in HEK293 cells assessed as remaining transporter activity in presence of 100 nM [3H]choline by [3H]choline uptake assay. Format: cell-based.
In the next series the target is T3, Cytochrome P450 1A2 (Homo sapiens, UniProt P05177).
T3 sequence (P05177 whole entry): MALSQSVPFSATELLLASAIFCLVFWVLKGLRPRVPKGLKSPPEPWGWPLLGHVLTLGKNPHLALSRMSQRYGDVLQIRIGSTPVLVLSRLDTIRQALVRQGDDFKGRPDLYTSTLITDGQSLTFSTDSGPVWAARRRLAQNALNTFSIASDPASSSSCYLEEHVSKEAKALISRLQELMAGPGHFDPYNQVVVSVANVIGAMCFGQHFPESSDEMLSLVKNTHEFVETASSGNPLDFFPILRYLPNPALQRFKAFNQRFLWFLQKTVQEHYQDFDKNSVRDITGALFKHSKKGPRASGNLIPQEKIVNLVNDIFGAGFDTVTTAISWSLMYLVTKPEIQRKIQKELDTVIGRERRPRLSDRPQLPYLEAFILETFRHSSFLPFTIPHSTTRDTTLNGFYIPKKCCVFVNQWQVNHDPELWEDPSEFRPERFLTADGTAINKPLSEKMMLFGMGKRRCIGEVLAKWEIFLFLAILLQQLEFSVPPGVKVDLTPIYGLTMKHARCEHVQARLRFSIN
Nature of the series: Inhibition of human CYP1A2. Format: ADME.

For the next series, the system named is Brain. Nature of the series: Drug level in mouse brain at 1 mg/kg, ip administered as cassette dosing. Format: ADME, organism-based. Also on record: dose 1 mg/kg, route intraperitoneal. As to conditions: in vivo.
Series [6] in a line: Ratio of drug level in brain to plasma in mouse at 1 mg/kg, ip administered as cassette dosing. Also on record: dose 1 mg/kg, route intraperitoneal. The series is classed as ADME, organism-based.
The subject of a further series is Plasma. As to the kind of experiment: Fraction unbound in mouse plasma by equilibrium dialysis method. Format: ADME, cell-free.
For a further series, the target named is Cytochrome P450 2C9 (Homo sapiens, UniProt P11712). As to the kind of experiment: Inhibition of human CYP2C9. The series is classed as ADME.
Chain of Cytochrome P450 2C9 (P11712 whole entry): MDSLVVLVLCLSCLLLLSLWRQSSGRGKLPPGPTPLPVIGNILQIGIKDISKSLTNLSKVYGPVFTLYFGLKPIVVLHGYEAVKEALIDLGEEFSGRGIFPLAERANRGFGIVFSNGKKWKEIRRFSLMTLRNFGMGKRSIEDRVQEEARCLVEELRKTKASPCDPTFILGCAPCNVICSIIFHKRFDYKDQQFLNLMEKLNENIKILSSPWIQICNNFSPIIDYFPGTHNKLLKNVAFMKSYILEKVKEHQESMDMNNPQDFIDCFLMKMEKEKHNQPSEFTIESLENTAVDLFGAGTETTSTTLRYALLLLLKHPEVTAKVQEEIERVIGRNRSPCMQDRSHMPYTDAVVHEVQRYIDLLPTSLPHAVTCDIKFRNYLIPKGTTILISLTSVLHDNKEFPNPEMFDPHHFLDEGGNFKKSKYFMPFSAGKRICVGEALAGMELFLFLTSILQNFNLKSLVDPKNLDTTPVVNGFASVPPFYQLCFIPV
A further series deals with Cytochrome P450 3A4 (Homo sapiens, UniProt P08684). Nature of the series: Inhibition of human CYP3A4. Format: ADME.
Chain of Cytochrome P450 3A4 (P08684 whole entry): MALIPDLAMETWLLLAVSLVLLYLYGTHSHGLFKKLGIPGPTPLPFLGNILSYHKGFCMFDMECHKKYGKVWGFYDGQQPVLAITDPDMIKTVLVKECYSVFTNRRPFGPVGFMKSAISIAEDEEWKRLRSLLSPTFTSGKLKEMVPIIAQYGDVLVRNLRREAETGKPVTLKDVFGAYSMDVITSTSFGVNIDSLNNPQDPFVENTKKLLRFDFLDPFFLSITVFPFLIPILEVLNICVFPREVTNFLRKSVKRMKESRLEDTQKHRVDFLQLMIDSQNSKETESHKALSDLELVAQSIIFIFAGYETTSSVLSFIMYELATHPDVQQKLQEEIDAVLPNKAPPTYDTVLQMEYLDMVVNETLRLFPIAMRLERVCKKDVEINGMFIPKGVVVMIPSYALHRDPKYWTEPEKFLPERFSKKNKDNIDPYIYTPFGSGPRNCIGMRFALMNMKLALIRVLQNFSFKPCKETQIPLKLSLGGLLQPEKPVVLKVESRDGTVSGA
The nature of series [7]: Hepatic clearance in mouse liver microsomes. The series is classed as ADME.
For another series, the target named is Cytochrome P450 2D6 (Homo sapiens, UniProt P10635). Nature of the series: Inhibition of human CYP2D6. The series is classed as ADME.
Chain of Cytochrome P450 2D6 (P10635 whole entry): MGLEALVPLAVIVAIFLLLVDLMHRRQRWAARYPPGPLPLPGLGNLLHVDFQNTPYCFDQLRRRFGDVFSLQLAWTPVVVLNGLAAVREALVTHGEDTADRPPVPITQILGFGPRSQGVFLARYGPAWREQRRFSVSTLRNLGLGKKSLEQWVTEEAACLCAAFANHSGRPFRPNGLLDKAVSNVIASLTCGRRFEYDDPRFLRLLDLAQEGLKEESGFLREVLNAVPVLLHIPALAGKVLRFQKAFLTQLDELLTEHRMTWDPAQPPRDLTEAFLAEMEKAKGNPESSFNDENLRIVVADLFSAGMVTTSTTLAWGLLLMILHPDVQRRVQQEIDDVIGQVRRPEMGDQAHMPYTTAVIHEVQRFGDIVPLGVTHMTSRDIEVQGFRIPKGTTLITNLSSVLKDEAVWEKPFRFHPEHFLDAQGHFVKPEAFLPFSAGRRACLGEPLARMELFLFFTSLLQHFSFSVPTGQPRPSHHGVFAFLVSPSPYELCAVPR
In series [8] the target is Sodium-dependent dopamine transporter (Homo sapiens) (UniProt Q01959). As to the kind of experiment: Inhibition of DAT (unknown origin).
Chain of Sodium-dependent dopamine transporter (Homo sapiens) (Q01959 whole entry): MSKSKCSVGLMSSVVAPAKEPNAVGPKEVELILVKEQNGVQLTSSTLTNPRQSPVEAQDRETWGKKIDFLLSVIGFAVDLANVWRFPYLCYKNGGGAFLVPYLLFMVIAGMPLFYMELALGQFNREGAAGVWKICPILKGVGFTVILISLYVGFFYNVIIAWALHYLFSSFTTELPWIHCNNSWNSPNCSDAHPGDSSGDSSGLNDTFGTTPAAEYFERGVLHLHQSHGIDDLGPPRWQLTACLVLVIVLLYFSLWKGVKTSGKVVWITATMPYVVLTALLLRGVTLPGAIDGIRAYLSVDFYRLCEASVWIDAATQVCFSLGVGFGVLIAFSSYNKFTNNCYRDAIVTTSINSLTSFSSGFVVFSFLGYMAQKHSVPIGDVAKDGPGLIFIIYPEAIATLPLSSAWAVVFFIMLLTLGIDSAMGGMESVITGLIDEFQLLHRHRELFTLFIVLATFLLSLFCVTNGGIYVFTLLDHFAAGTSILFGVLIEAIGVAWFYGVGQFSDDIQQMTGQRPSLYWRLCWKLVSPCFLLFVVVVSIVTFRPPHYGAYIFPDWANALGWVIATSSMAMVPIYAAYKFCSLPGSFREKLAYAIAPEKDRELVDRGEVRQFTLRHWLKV

In general, IC50 refers to the concentration needed to halve the response being measured. With `COc1ccc(C(=O)NCc2nc(C)c(C)s2)cc1OC1CCN(C(C)C)CC1`, the concentration for half-maximal inhibition (IC50) in [1] is 0.76 µM.
For `COc1ccc(C(=O)NCc2cc(C(C)C)no2)cc1OC1CCCC1`, the figures for the Activity in series [2] and in series [3] were 82% and 81.3%, respectively.
On the same counts, the results for `COc1ccc(C(=O)NCc2cc(C(C)C)no2)cc1O` are 86.2% and 99.4%.
With `COc1ccc(C(=O)NC(C)Cc2cnccn2)cc1OC1CCN(C(C)C)CC1` (centres undefined), in series [1], the IC50 was 4.47 µM.
In the case of `COc1ccc(C(=O)NCc2ccncn2)cc1OC1CCN(C(C)C)CC1`, the figures for the Activity in [2] and in series [3] were 87.7% and 71.8%, respectively.
Turning to `COc1ccc(C(=O)NCc2cc(C(C)C)no2)cc1OCCN1CCOCC1`, the 50% inhibitory concentration (IC50) in [4] worked out at 1.77 µM; in [5] it was 6.12 µM. Moreover, the Activity in [2] is 36.7%; in series [3] it was 32.1%.
Compound `COc1ccc(C(=O)NC2CCc3ccccc32)cc1OC1CCN(C(C)C)CC1` (centres undefined) showed a half-inhibitory concentration (IC50) in [1] of 3.36 µM.
As for `COc1ccc(C(=O)NCc2cc(C(C)C)no2)cc1OCC(C)C`, the Activity in series [2] came to 99.8%; in [3] it was 89.4%.
In the case of `COc1ccc(C(=O)NCc2csc(C)n2)cc1OC1CCN(C(C)C)CC1`, the IC50 is 10.3 µM at Cytochrome P450 1A2; 1.64 µM in series [4]; 4.93 µM in series [5]; over 30 µM against Cytochrome P450 2C9; over 30 µM on Cytochrome P450 3A4; over 30 µM on Cytochrome P450 2D6. This compound yielded a Drug uptake in the series on Brain of 1.5 ng/g. Besides, the BPR in [6] is 0.19. In the series on Plasma, this compound gave a Fu of 0.39. Also, the CLhep predicted in [7] is 82.4 mL/min/kg. For the same compound, the Activity is 42.6% in series [2] and 18.9% in [3].
`COc1ccc(C(=O)NCc2cc(C(C)C)no2)cc1OC1CCN(C(C)C)CC1`: the concentration for half-maximal inhibition (IC50) on Cytochrome P450 1A2, at Cytochrome P450 2C9, at Cytochrome P450 3A4 and against Cytochrome P450 2D6 was over 30 µM in each case. The Drug uptake entry in the series with Brain (BLD = below limit of detection) was “BLD”. Also, in series [6], the BPR is under 0.06. For the same compound, the Fu with Plasma is on record as 0.57. Besides, in series [7], the CLhep predicted is 80.7 mL/min/kg. Besides, the results for the Activity in series [2] and in [3] were 10.9% and -2.8%, respectively.
In series [1], `CC(NC(=O)c1ccc(OC2CCN(Cc3ccccn3)CC2)cc1)c1ccccc1` (centres undefined) showed an IC50 of 1.26 µM.
For the compound `COc1ccc(C(=O)NCc2cnn(C)c2)cc1OC1CCN(C(C)C)CC1`, the Activity in [2] came to 64.8%; in series [3] it was 47.5%.
On the same counts, the results for `COc1ccc(C(=O)NCc2cc(C(C)C)no2)cc1OCCN1CCCC1` are 50.1% and 29.8%.
In the case of `COc1ccc(C(=O)NCCN2CCCC2)cc1OC1CCN(C(C)C)CC1`, the IC50 in series [4] is 1.56 µM; in [5] it was 2.13 µM. In addition, the Activity worked out at 37.4% in series [2] and 9.9% in series [3].
With `COc1ccc(C(=O)NCc2cc(C(C)C)no2)cc1OCCN1CCCCC1`, the half-inhibitory concentration (IC50) at Cytochrome P450 1A2 was over 30 µM; in [4], 0.53 µM; in series [5], 0.76 µM; at Cytochrome P450 2C9, over 30 µM; at Cytochrome P450 3A4, over 30 µM; against Cytochrome P450 2D6, over 30 µM. In addition, the Drug uptake in the series on Brain is 1.8 ng/g. The BPR in [6] is 0.07. The Fu in the series on Plasma stood at 0.71. Besides, in [7], the CLhep predicted was 58.4 mL/min/kg. In addition, the Activity is 38.3% in series [2] and -0.2% in series [3].
Turning to `COc1ccc(C(=O)NCc2cc(C(C)C)no2)cc1OC1CCN(C)CC1`, the IC50 against Cytochrome P450 1A2, on Cytochrome P450 2C9 and at Cytochrome P450 2D6 was over 30 µM in each case. In addition, in the series with Brain, the Drug uptake turned out to be 3.3 ng/g. Moreover, in series [6], the BPR was found to be 0.28. The Fu in the series on Plasma is given as 0.48. In series [7], the CLhep predicted is 29.4 mL/min/kg. The Activity in series [2] is 3.1%; in [3], -0.9%. Moreover, the inhibition entry in series [8] was “inactive”.
Turning to `COc1ccc(C(=O)NCc2cc(C(C)C)no2)cc1OC1CCNCC1`, the Activity is 51.5% in series [2] and 18.6% in series [3].
Consider `COc1ccc(C(=O)NC(C)Cc2ccccn2)cc1OC1CCN(C(C)C)CC1` (centres undefined), for which the IC50 on Cytochrome P450 1A2 is over 30 µM; in series [4], 1.73 µM; in [5], 4.12 µM; against Cytochrome P450 2C9 it was over 30 µM; at Cytochrome P450 3A4, 28.2 µM; on Cytochrome P450 2D6, 27.1 µM. In the series with Brain, the Drug uptake is given as 4 ng/g. The BPR in series [6] is on record as 1.1. In the series on Plasma, the Fu was 0.35. Moreover, the CLhep predicted in [7] is 48.8 mL/min/kg. In addition, the results for the Activity in [2] and in series [3] were 46.3% and 20.4%, respectively.
Turning to `COc1ccc(C(=O)NCc2nc(C)cs2)cc1OC1CCN(C(C)C)CC1`, the IC50 amounted to 1.02 µM in series [4] and 3.48 µM in series [5]. Further, the Activity in [2] is 42.2%; in series [3], 13.2%.
On to `COc1ccc(C(=O)NCc2cc(C(C)C)no2)cc1OC1CCCN(C)C1` (centres undefined), for which the results for the IC50 in series [4] and in series [5] were 4.54 µM and 1.25 µM, respectively. Moreover, the Activity in [2] was determined as 51.7%; in [3] it was 18.4%.
Regarding `COc1ccc(C(=O)NCc2cc(C)n(C)n2)cc1OC1CCN(C(C)C)CC1`, the IC50 is 2.51 µM in series [4] and 8.09 µM in [5]. The Activity in series [2] was 49.9%; in series [3], 29.4%.
Take `COc1ccc(C(=O)NCc2ccc(C)s2)cc1OC1CCN(C(C)C)CC1`: the Activity in series [2] was determined as 76.4%; in [3], 36.7%.
For the compound `CCc1cc(CNC(=O)c2ccc(OC)c(OC3CCN(C(C)C)CC3)c2)on1`, the IC50 in [1] was 0.6 µM.
On the same count and under the same terms, for `CCCN1CCC(Oc2cccc(C(=O)NCCc3ccccc3)c2)CC1` the value was 4.22 µM.
Take `CCn1cc(CNC(=O)c2ccc(OC)c(OC3CCN(C(C)C)CC3)c2)cn1`: the IC50 in series [4] is 1.85 µM; in series [5], 9.27 µM. The Activity in [2] is 41.8%; in [3], 24.8%.
In the case of `COc1ccc(C(=O)NCc2cc(C(C)C)no2)cc1OC(C)CN(C)C` (centres undefined), the Activity in series [2] stood at 59.7%; in series [3], 28.2%.
Turning to `CCn1nc(C)c(CNC(=O)c2ccc(OC)c(OC3CCN(C(C)C)CC3)c2)c1C`, the concentration for half-maximal inhibition (IC50) against Cytochrome P450 1A2 was over 30 µM; in [4], 0.91 µM; in [5], 1.58 µM; at Cytochrome P450 2C9, over 30 µM; against Cytochrome P450 3A4 it was over 30 µM; at Cytochrome P450 2D6, 6.7 µM. Also, in the series with Brain (BLD = below limit of detection), the Drug uptake result was “BLD”. In series [6], the BPR was under 0.05. Moreover, the Fu in the series on Plasma is listed as 0.57. Further, in series [7], the CLhep predicted is 22.4 mL/min/kg. The Activity in series [2] came to 45.8%; in series [3], 15.9%.
`COc1ccc(C(=O)NCCC2=CCCCC2)cc1OC1CCN(C(C)C)CC1` displayed an IC50 in series [1] of 3.16 µM.
As to `COc1ccc(C(=O)NCc2cc(C(C)C)no2)cc1OC1CCCCC1`, the figures for the Activity in [2] and in series [3] were 83.2% and 87.6%, respectively.
